Experimental data as given in ChEMBL document CHEMBL1139159, “Synthesis and anti-HIV-1 activities of novel podophyllotoxin derivatives” (Bioorg Med Chem Lett, 2007).
pEC50, pIC50: −log10 of the molar value.

Experiments:
C8166 = assay: Cytotoxicity against C8166 cells assessed as reduction in total cell number; type: cell-based; details: Homo sapiens
[1] = system: Human immunodeficiency virus 1; assay: Antiviral activity against HIV1 in C8166 cells assessed as inhibition of syncytia formation; type: functional, organism-based; details: Human immunodeficiency virus 1, C8166
[2] = Therapeutic index, IC50 for C8166 cells to EC50 for HIV1; type: cell-based; details: human, read-out: Ratio IC50/EC50

Structure (SMILES) | pEC50 [1] | pIC50 (C8166) | selectivity ratio [2]
COc1cc([C@@H]2c3cc4c(cc3[C@H](NC(=O)OC[C@@H]3C=C[C@H](n5cc(C)c(=O)[nH]c5=O)O3)[C@H]3COC(=O)[C@H]23)OCO4)cc(OC)c1OC | 6.62 | 5.47 | 14.4
COc1cc2c(cc1OC)[C@@H](NC(=O)OC[C@@H]1C=C[C@H](n3cc(C)c(=O)[nH]c3=O)O1)[C@H]1COC(=O)[C@@H]1[C@@H]2c1cc(OC)c(OC)c(OC)c1 | 5.36 | < 3.53 | > 67.1
COc1cc2c(cc1OC)[C@@H](C#N)[C@H]1COC(=O)[C@@H]1[C@@H]2c1cc(OC)c(OC)c(OC)c1 | 5.98 | 3.86 | 131
COc1cc2c(cc1OC)[C@@H](C(=O)O)[C@H]1COC(=O)[C@@H]1[C@@H]2c1cc(OC)c(OC)c(OC)c1 | 4.33 | < 3.36 | > 9.31
COc1cc([C@@H]2c3cc4c(cc3[C@H](O)[C@H]3COC(=O)[C@H]23)OCO4)cc(OC)c1OC [PODOFILOX] | 8.54 | > 6.82 | 53.3

Now from value to compound, other results behind:

pEC50 [1] | Structure (SMILES) | pIC50 (C8166) | selectivity ratio [2]
8.05 | Cc1cn([C@H]2C[C@H](N=[N+]=N)[C@@H](CO)O2)c(=O)[nH]c1=O | 3.30 | 55600
6.54 | COc1cc([C@@H]2c3cc4c(cc3[C@H](NC(=O)OC[C@@H]3C=C[C@H](n5cc(C)c(=O)[nH]c5=O)O3)[C@H]3COC(=O)[C@H]23)OCO4)cc(OC)c1O | 3.98 | 355
6.77 | COc1cc([C@@H]2c3cc4c(cc3[C@@H](NC(=O)OC[C@@H]3C=C[C@H](n5cc(C)c(=O)[nH]c5=O)O3)[C@H]3COC(=O)[C@H]23)OCO4)cc(OC)c1O | 4.10 | 467
5.26 | COc1cc([C@@H]2c3cc4c(cc3[C@@H](NC(=O)OC[C@@H]3C=C[C@H](n5cc(C)c(=O)[nH]c5=O)O3)[C@H]3COC(=O)[C@H]23)OCO4)cc(OC)c1OC | 4.17 | 12.5
